Source: US9217014B2, “Antifungal agents and uses thereof” (Cidara Therapeutics, Inc., priority 2011, dated 2015)
Where two headings read alike, the source gives them in different places.

What was measured:
[1] = test system: Candida spp.; assay: MIC values versus Candida spp. at 24 and 48 hours; format: cell-based; details: presence and absence of 50% human serum
Protocol: (§1) MIC values (μg/mL) of anidulafungin, caspofungin, amphotericin B, compound 1, and compound 16 against various Candida species in the presence and absence of 50% human serum were obtained as follows.
(§2) Test organisms were obtained from the American Type Culture Collection (Manassas, Va.). The isolates were maintained at −80° C., then thawed and sub-cultured prior to testing.
(§3) The MIC assay method followed the procedure described by the Clinical and Laboratory Standards Institute and employed automated liquid handlers to conduct serial dilutions and liquid transfers. The wells in columns 1-12 in standard 96-well microdilution plates were filled with 150 μL of DMSO. These would become the ‘mother plates’ from which ‘daughter’ or test plates would be prepared. The drugs (150 μL at 80× the desired top concentration in the test plates) were dispensed into the appropriate well in column 1 of the mother plates and mixed. Serial 1:1 dilutions were made through Column 11 in the “mother plate”. The wells of column 12 contained no drug and were the organism growth control wells. […]
(§4) Plates were covered with a lid, placed in plastic bags, and incubated at 35° C. The Candida isolates were read after 24 h incubation and again at 48 h. […]
(§5) For Candida species, the Minimal Inhibitory Concentration (MIC) was read per CLSI guidelines.

[2] = test system: C. albicans R303; assay: mouse candidiasis infection model, IP administration, kidney fungal burden; format: in vivo; details: for overall performance in reducing C. albicans CFUs in the kidneys of the mice: conclusion over all runs
Procedure, shortened: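 Female CD-1 mice rendered neutropenic with IP cyclophosphamide 150 mg/kg at days −4 and −1. Mice infected IV via tail vein with C. albicans R303, then given test compounds IP 2 h post-infection. Kidney fungal burden determined as CFU by plate counts; values are means of four mice.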

[3] = test system: Candida glabrata; assay: MIC versus a strain of Candida glabrata in 50% human serum; format: cell-based
Protocol: as §1, §2, §3, §4, §5

[4] = Pharmacokinetics in beagle dogs, intravenous; format: in vivo; details: for CI / half-life / Vd: 1.4 mg/kg intravenous slow bolus, mean ± SEM, n = 4 beagle dogs; for half-life / Vd: dog; for half-life: read-out: T ½ (converted); for Vd: read-out: Vz
Protocol: The test articles were administered to beagle dogs weighing approximately 6-10 kg. Each test article was dosed at 1.4 mg/kg in aqueous saline (with or without 0.5% Tween) over course of 1-10 minutes. […] The dogs were fasted at least 12 hours prior to each dosing and offered food after the 4-hour blood sample was taken; water was withheld for 1 hour prior to and 4 hours following each dosing event. The dose for each animal was based on its most recent body weight. The test article was injected intravenously via a catheter placed in the cephalic vein as a slow bolus.
Blood was collected via the jugular vein. All blood samples (˜1 mL each) were collected into K3EDTA tubes. Following blood collection, the samples were immediately inverted several times and were held on wet ice pending centrifugation. The samples were centrifuged within ˜30 minutes of collection under refrigeration (˜5° C. for ˜10 minutes at ˜2000 g) to obtain plasma. The plasma was frozen immediately on dry ice after separation. The plasma samples were stored at approximately −70° C. until analysis.
Plasma (100 μL) was precipitated with 400 μL of 0.1% formic acid in acetonitrile containing the internal standard (100 ng/mL pneumocandin). The samples were then capped and vortexed for about 30 seconds followed by centrifugation at 14,000 rpm at room temperature for 10 minutes. Following centrifugation 200 μL of supernatant was transferred to plastic autosampler vials containing 200 μL of 0.1% formic acid in water and vortexed. Samples were then analyzed by LCMSMS.
All pharmacokinetic calculations were performed using WinNonlin version 4.1 (Pharsight Corp) by noncompartmental analysis.

[5] = Candida albicans, R303, ip, 24 h, Fifth run, IP 0.5 mg/kg, read-out: Difference from 24-h control
[6] = Candida albicans, R303, ip, 24 h, Fifth run, IP 1.5 mg/kg, read-out: Difference from 24-h control
[7] = Candida albicans, R303, ip, 24 h, Fifth run, IP 4.5 mg/kg, read-out: Difference from 24-h control
[8] = Fifth run, IP 0.5 mg/kg, kidneys 24 h after infection
[9] = Fifth run, IP 1.5 mg/kg, kidneys 24 h after infection
[10] = Fifth run, IP 4.5 mg/kg, kidneys 24 h after infection
[11] = beagle dogs, 1.4 mg/kg intravenous

Compound	activity against Candida strains relative to anidulafungin (MIC) [1]	log reduction at 0.5 mg/kg [2, 5]	log reduction at 1.5 mg/kg [2, 6]	log reduction at 4.5 mg/kg [2, 7]	Mean log10 CFU/kidneys (±SEM) [2, 8] [log10 CFU/kidneys]	Mean log10 CFU/kidneys (±SEM) [2, 9] [log10 CFU/kidneys]	Mean log10 CFU/kidneys (±SEM) [2, 10] [log10 CFU/kidneys]	overall performance in reducing C. albicans CFUs in the kidneys of the mice [2]	activity against a strain of Candida glabrata in comparison to anidulafungin [3]	CI [4] [mL/min/kg]	also measured
CCCCCOc1ccc(-c2ccc(-c3ccc(C(=O)N[C@H]4C[C@@H](O)C(OCC[N+](C)(C)C)NC(=O)C5[C@@H](O)[C@@H](C)CN5C(=O)C([C@@H](C)O)NC(=O)C([C@H](O)[C@@H](O)c5ccc(O)cc5)NC(=O)C5C[C@@H](O)CN5C(=O)C([C@@H](C)O)NC4=O)cc3)cc2)cc1 (stereo partly shown) [compound 1]	retain their activity	1.47	3.58	4.81	3.67 ± 0.07	1.56 ± 0.15	0.33 ± 0.33	performed strongly	superior activity	0.301 ± 0.0243	log reduction at 5 mg/kg ([2]; Candida albicans, R303, ip, 24 h, First run, IP 5 mg/kg, read-out: Difference from 24-h control): 4.8; log reduction at 0.5 mg/kg ([2]; Candida albicans, R303, ip, 24 h, Second run, IP 0.5 mg/kg, read-out: Difference from 24-h control): 2.08; log reduction at 1.5 mg/kg ([2]; Candida albicans, R303, ip, 24 h, Second run, IP 1.5 mg/kg, read-out: Difference from 24-h control): 3.05; log reduction at 4.5 mg/kg ([2]; Candida albicans, R303, ip, 24 h, Second run, IP 4.5 mg/kg, read-out: Difference from 24-h control): 3.9; Mean log10 CFU/kidneys (±SD) ([2]; First run, IP 5 mg/kg, neutropenic mice, kidneys 24 h after infection): 0.40 ± 0.80 log10 CFU/kidneys; Mean log10 CFU/kidneys (±SEM) ([2]; Second run, IP 0.5 mg/kg, kidneys 24 h after infection): 2.80 ± 0.11 log10 CFU/kidneys; Mean log10 CFU/kidneys (±SEM) ([2]; Second run, IP 1.5 mg/kg, kidneys 24 h after infection): 1.83 ± 0.14 log10 CFU/kidneys; Mean log10 CFU/kidneys (±SEM) ([2]; Second run, IP 4.5 mg/kg, kidneys 24 h after infection): 0.98 ± 0.33 log10 CFU/kidneys; circulating half-life (in words) [4, 11]: surprisingly long circulating half-life; volume of distribution (in words) [4, 11]: surprisingly large volume of distribution; half-life ([4]; beagle, in vivo, iv, 1.4 mg/kg): 53.1 ± 3.93 h; Vd ([4]; in vivo): 1.36 ± 0.0619 L/kg
CCCCCOc1ccc(-c2ccc(-c3ccc(C(=O)N[C@H]4C[C@@H](O)C(NCC[N+](C)(C)C)NC(=O)C5[C@@H](O)[C@@H](C)CN5C(=O)C([C@@H](C)O)NC(=O)C([C@H](O)[C@@H](O)c5ccc(O)cc5)NC(=O)C5C[C@@H](O)CC5C(=O)C([C@@H](C)O)NC4=O)cc3)cc2)cc1 (stereo partly shown) [compound 16]	retain their activity	3.22	3.74	4.08	1.91 ± 0.34	1.39 ± 0.16	1.05 ± 0.36	performed strongly	superior activity	0.365 ± 0.014	half-life ([4]; plasma): 27.6 ± 1.11 h; Vd ([4]; plasma): 0.874 ± 0.0639 L/kg
